Data on 17 compounds can be found in ChEMBL document CHEMBL5241128, “Synthesis of 1-O-acyl- and 1-oxo-kamebanin analogues and their cytotoxic activity” (Bioorg Med Chem Lett, 2023).

pIC50: −log10 of the molar value.

The subject of the first test is HCT-116. Description: Cytotoxicity against human HCT-116 cells assessed as inhibition of cell growth. It counts as functional, cell-based.
For the compound `C=C1C(=O)[C@@]23[C@H](O)C[C@@H]4C(C)(C)CC[C@H](OC(=O)CC)[C@@]4(C)[C@@H]2CC[C@@H]1[C@H]3O`, the negative logarithm of the IC50 (pIC50) (in general, the IC50 on a negative log10 scale, so that one unit is a factor of ten) is 5.01.
Same read-out and setting: with `C=C1C(=O)[C@@]23[C@H](O)C[C@@H]4C(C)(C)CC[C@H](O)[C@@]4(C)[C@@H]2CC[C@@H]1[C@H]3O` [KAMEBANIN] the figure was 4.92; with `C=C1C(=O)[C@@]23[C@@H]4OC(C)(C)O[C@@H]2C[C@@H]2C(C)(C)CC[C@H](O)[C@@]2(C)[C@@H]3CC[C@@H]14`, 5.12.
For the compound `C=C1C(=O)[C@@]23[C@@H]4OC(C)(C)O[C@@H]2C[C@@H]2C(C)(C)CCC(=O)[C@@]2(C)[C@@H]3CC[C@@H]14`, the pIC50 was 4.11.
For the compound `C=C1C(=O)[C@@]23[C@@H]4OC(C)(C)O[C@@H]2C[C@@H]2C(C)(C)CC[C@H](OC(=O)CCC)[C@@]2(C)[C@@H]3CC[C@@H]14`, the pIC50 was 5.41.
Still for that read-out and setting: to `COc1cc([C@@H]2c3cc4c(cc3[C@@H](O[C@@H]3O[C@@H]5CO[C@@H](C)O[C@H]5[C@H](O)[C@H]3O)[C@H]3COC(=O)[C@H]23)OCO4)cc(OC)c1O` [ETOPOSIDE] belongs 4.64.
On the same count and under the same terms, to `C=C1C(=O)[C@@]23[C@@H]4OC(C)(C)O[C@@H]2C[C@@H]2C(C)(C)CC[C@H](OC(=O)CC)[C@@]2(C)[C@@H]3CC[C@@H]14` belongs 5.16.
Take `C=C1C(=O)[C@@]23[C@@H]4OC(C)(C)O[C@@H]2C[C@@H]2C(C)(C)CC[C@H](OC(=O)CCCCC)[C@@]2(C)[C@@H]3CC[C@@H]14`: the pIC50 was 5.17.
As for `C=C1C(=O)[C@@]23[C@H](O)C[C@@H]4C(C)(C)CCC(=O)[C@@]4(C)[C@@H]2CC[C@@H]1[C@H]3O`, the pIC50 is 4.96.
The same measure, in the same setting: with `C=C1C(=O)[C@@]23[C@H](O)C[C@@H]4C(C)(C)CC[C@H](OC(=O)C(C)(C)C)[C@@]4(C)[C@@H]2CC[C@@H]1[C@H]3O` the figure was 5.37.
On to `C=C1C(=O)[C@@]23[C@H](O)C[C@@H]4C(C)(C)CC[C@H](OC(=O)CCCC)[C@@]4(C)[C@@H]2CC[C@@H]1[C@H]3O`, for which the negative logarithm of the IC50 (pIC50) is 5.38.
For the compound `C=C1C(=O)[C@@]23[C@H](O)C[C@@H]4C(C)(C)CC[C@H](OC(=O)CCC)[C@@]4(C)[C@@H]2CC[C@@H]1[C@H]3O`, the pIC50 is 5.38.
The same measure, in the same setting: with `C=C1C(=O)[C@@]23[C@@H]4OC(C)(C)O[C@@H]2C[C@@H]2C(C)(C)CC[C@H](OC(C)=O)[C@@]2(C)[C@@H]3CC[C@@H]14` the figure was 4.37; with `C=C1C(=O)[C@@]23[C@H](O)C[C@@H]4C(C)(C)CC[C@H](OC(C)=O)[C@@]4(C)[C@@H]2CC[C@@H]1[C@H]3O`, 4.89.
The same measure, in the same setting: with `C=C1C(=O)[C@@]23[C@H](O)C[C@@H]4C(C)(C)CC[C@H](OC(=O)CCCCC)[C@@]4(C)[C@@H]2CC[C@@H]1[C@H]3O` the figure was 5.40; with `C=C1C(=O)[C@@]23[C@@H]4OC(C)(C)O[C@@H]2C[C@@H]2C(C)(C)CC[C@H](OC(=O)C(C)(C)C)[C@@]2(C)[C@@H]3CC[C@@H]14`, 4.46; with `C=C1C(=O)[C@@]23[C@@H]4OC(C)(C)O[C@@H]2C[C@@H]2C(C)(C)CC[C@H](OC(=O)CCCC)[C@@]2(C)[C@@H]3CC[C@@H]14`, 5.00.

For another test, the system named is HL-60. Description: Cytotoxicity against human HL-60 cells assessed as inhibition of cell growth. It counts as functional, cell-based.
As to `C=C1C(=O)[C@@]23[C@H](O)C[C@@H]4C(C)(C)CC[C@H](OC(=O)CC)[C@@]4(C)[C@@H]2CC[C@@H]1[C@H]3O`, the pIC50 was 5.23.
On the same count and under the same terms, with `C=C1C(=O)[C@@]23[C@H](O)C[C@@H]4C(C)(C)CC[C@H](O)[C@@]4(C)[C@@H]2CC[C@@H]1[C@H]3O` [KAMEBANIN] the figure was 5.48; with `C=C1C(=O)[C@@]23[C@@H]4OC(C)(C)O[C@@H]2C[C@@H]2C(C)(C)CC[C@H](O)[C@@]2(C)[C@@H]3CC[C@@H]14`, 5.14; with `C=C1C(=O)[C@@]23[C@@H]4OC(C)(C)O[C@@H]2C[C@@H]2C(C)(C)CCC(=O)[C@@]2(C)[C@@H]3CC[C@@H]14`, 4.44.
Same read-out and setting: to `C=C1C(=O)[C@@]23[C@@H]4OC(C)(C)O[C@@H]2C[C@@H]2C(C)(C)CC[C@H](OC(=O)CCC)[C@@]2(C)[C@@H]3CC[C@@H]14` belongs 5.14; to `COc1cc([C@@H]2c3cc4c(cc3[C@@H](O[C@@H]3O[C@@H]5CO[C@@H](C)O[C@H]5[C@H](O)[C@H]3O)[C@H]3COC(=O)[C@H]23)OCO4)cc(OC)c1O` [ETOPOSIDE], 4.92.
In the case of `C=C1C(=O)[C@@]23[C@@H]4OC(C)(C)O[C@@H]2C[C@@H]2C(C)(C)CC[C@H](OC(=O)CC)[C@@]2(C)[C@@H]3CC[C@@H]14`, the negative-log IC50 (pIC50) is 5.24.
Regarding `C=C1C(=O)[C@@]23[C@@H]4OC(C)(C)O[C@@H]2C[C@@H]2C(C)(C)CC[C@H](OC(=O)CCCCC)[C@@]2(C)[C@@H]3CC[C@@H]14`, the pIC50 was 5.16.
As for `C=C1C(=O)[C@@]23[C@H](O)C[C@@H]4C(C)(C)CCC(=O)[C@@]4(C)[C@@H]2CC[C@@H]1[C@H]3O`, the pIC50 was 5.66.
On to `C=C1C(=O)[C@@]23[C@H](O)C[C@@H]4C(C)(C)CC[C@H](OC(=O)C(C)(C)C)[C@@]4(C)[C@@H]2CC[C@@H]1[C@H]3O`, for which the pIC50 was 5.55.
On to `C=C1C(=O)[C@@]23[C@H](O)C[C@@H]4C(C)(C)CC[C@H](OC(=O)CCCC)[C@@]4(C)[C@@H]2CC[C@@H]1[C@H]3O`, for which the pIC50 was 5.70.
Same read-out and setting: with `C=C1C(=O)[C@@]23[C@H](O)C[C@@H]4C(C)(C)CC[C@H](OC(=O)CCC)[C@@]4(C)[C@@H]2CC[C@@H]1[C@H]3O` the figure was 5.21; with `C=C1C(=O)[C@@]23[C@@H]4OC(C)(C)O[C@@H]2C[C@@H]2C(C)(C)CC[C@H](OC(C)=O)[C@@]2(C)[C@@H]3CC[C@@H]14`, 4.24.
Regarding `C=C1C(=O)[C@@]23[C@H](O)C[C@@H]4C(C)(C)CC[C@H](OC(C)=O)[C@@]4(C)[C@@H]2CC[C@@H]1[C@H]3O`, the negative logarithm of the IC50 (pIC50) is 5.24.
Still for that read-out and setting: with `C=C1C(=O)[C@@]23[C@H](O)C[C@@H]4C(C)(C)CC[C@H](OC(=O)CCCCC)[C@@]4(C)[C@@H]2CC[C@@H]1[C@H]3O` the figure was 5.25; with `C=C1C(=O)[C@@]23[C@@H]4OC(C)(C)O[C@@H]2C[C@@H]2C(C)(C)CC[C@H](OC(=O)C(C)(C)C)[C@@]2(C)[C@@H]3CC[C@@H]14`, 4.85; with `C=C1C(=O)[C@@]23[C@@H]4OC(C)(C)O[C@@H]2C[C@@H]2C(C)(C)CC[C@H](OC(=O)CCCC)[C@@]2(C)[C@@H]3CC[C@@H]14`, 5.11.
